The supplement of paper PMC10307832

Legend:
Test in all cases: relative viability (nuclei count vs DMSO), 5 days (fraction); higher = more cells survive
[1] = compound: CC1CC(=O)N(C2=CN=C(N=C2N1C3CCCC3)NC4=C(C=C(C=C4)C(=O)NC5CCN(CC5)C)OC)C [NPK76-II-72-1] + Nc1ncn([C@H]2C[C@H](O)[C@@H](CO)O2)c(=O)n1 [Decitabine] (partner 2 µM)
How it was run: (§1)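 Lung cancer cell lines in 1536-well plates got either a single drug or a fixed anchor-drug dose together with five library-drug doses (not always all listed) in √10 steps, by pin tool, on the day after seeding. Nuclei were counted after 5 days, and relative viability is the treated-to-vehicle ratio of nuclei counts. Values are medians of duplicate plates.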

[2] = compound: CC1CC(=O)N(C2=CN=C(N=C2N1C3CCCC3)NC4=C(C=C(C=C4)C(=O)NC5CCN(CC5)C)OC)C [NPK76-II-72-1] + N=C(N)NC(=N)NCCc1ccccc1 [Phenformin] (partner 250 µM)
How it was run: as §1

[3] = compound: CC1CC(=O)N(C2=CN=C(N=C2N1C3CCCC3)NC4=C(C=C(C=C4)C(=O)NC5CCN(CC5)C)OC)C [NPK76-II-72-1] + CC(=O)Nc1cccc(-n2c(=O)n(C3CC3)c(=O)c3c(Nc4ccc(I)cc4F)n(C)c(=O)c(C)c32)c1 [Trametinib] (partner 0.02 µM)
How it was run: as §1

[4] = compound: CC[C@@H]1C(=O)N(C)c2cnc(Nc3ccc(C(=O)NC4CCN(C)CC4)cc3OC)nc2N1C1CCCC1 [BI-2536] + CC1(C)CCC(c2ccc(Cl)cc2)=C(CN2CCN(c3ccc(C(=O)NS(=O)(=O)c4ccc(N[C@H](CCN5CCOCC5)CSc5ccccc5)c(S(=O)(=O)C(F)(F)F)c4)cc3)CC2)C1 [Navitoclax] (partner 0.5 µM)
How it was run: as §1

Cell Line | relative viability ([1]; first compound 0.01 µM) | relative viability ([1]; first compound 0.03162 µM) | relative viability ([1]; first compound 0.1 µM) | relative viability ([1]; first compound 0.3162 µM) | relative viability ([1]; first compound 1 µM) | relative viability ([2]; first compound 0.01 µM) | relative viability ([2]; first compound 0.03162 µM) | relative viability ([2]; first compound 0.1 µM) | relative viability ([2]; first compound 0.3162 µM) | relative viability ([2]; first compound 1 µM) | relative viability ([3]; first compound 0.01 µM) | relative viability ([3]; first compound 0.03162 µM) | relative viability ([3]; first compound 0.1 µM) | relative viability ([3]; first compound 0.3162 µM) | relative viability ([3]; first compound 1 µM) | relative viability ([4]; first compound 0.01 µM) | relative viability ([4]; first compound 0.03162 µM) | relative viability ([4]; first compound 0.1 µM) | relative viability ([4]; first compound 0.3162 µM) | relative viability ([4]; first compound 1 µM)
LC-2-ad | 0.715 | 0.774 | 0.809 | 0.776 | 0.864 | 0.531 | 0.607 | 0.558 | 0.494 | 0.665 | 0.826 | 0.934 | 0.983 | 0.92 | 0.945 | 0.412 | 0.405 | 0.113 | 0.108 | 0.103
CAL-12T |  |  |  |  |  | 0.563 | 0.56 | 0.562 | 0.554 | 0.619 | 0.325 | 0.346 | 0.362 | 0.306 | 0.37 | 1.22 | 1.17 | 0.834 | 0.164 | 0.144
RERF-LC-KJ | 0.783 | 0.762 | 0.82 | 0.617 | 0.699 | 0.405 | 0.416 | 0.425 | 0.388 | 0.52 | 0.874 | 0.854 | 0.838 | 0.809 | 0.946 | 0.861 | 0.827 | 0.727 | 0.186 | 0.263
NCI-H1650 | 0.377 | 0.43 | 0.435 | 0.423 | 0.347 | 0.361 | 0.374 | 0.468 | 0.349 | 0.396 | 0.523 | 0.591 | 0.59 | 0.491 | 0.585 | 1.12 | 1.1 | 0.62 | 0.145 | 0.149
BEN | 0.661 | 0.713 | 0.671 | 0.743 | 0.76 | 0.229 | 0.228 | 0.276 | 0.245 | 0.253 | 1.15 | 0.945 | 1.13 | 0.854 | 1.08 | 0.0623 | 0.0739 | 0.0643 | 0.0627 | 0.0546
EMC-BAC-2 | 0.978 | 1.01 | 0.986 | 0.969 | 1.08 | 0.521 | 0.546 | 0.54 | 0.55 | 0.634 | 0.836 | 0.955 | 0.845 | 0.81 | 0.952 | 1.27 | 1.24 | 1.21 | 0.17 | 0.134
LU99A | 0.897 | 0.833 | 0.75 | 0.928 | 0.916 | 0.829 | 0.814 | 0.855 | 0.838 | 0.95 | 0.591 | 0.542 | 0.596 | 0.536 | 0.602 | 0.811 | 0.86 | 0.323 | 0.108 | 0.132
